{"source": "patent US7138361B2", "about": "“Herbicidal heterocycles” (E. I. du Pont de Nemours and Company, priority 2000, dated 2006)", "format_in_all_cases": "in vivo", "key": {"[1]": {"test_system": "smallflower flatsedge (Cyperus difformis)", "assay": "Test C flooded paddy test", "conditions": "for Flatsedge plant response rating: Flooded Paddy, scale 0 to 100, 0 no effect, 100 complete control; for Plant response rating, Flatsedge: flooded paddy test, scale 0 to 100 (0 no effect, 100 complete control)", "outline": "(§1)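 Visual injury score, 0 (no effect) to 100 (complete control), relative to controls. Paddy plants treated at 2-leaf stage; greenhouse hold 12–14 d before rating.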"}, "[2]": {"test_system": "barnyardgrass (Echinochloa crus-galli)", "assay": "Test C flooded paddy test", "conditions": "for Barnyardgrass plant response rating: Flooded Paddy, scale 0 to 100, 0 no effect, 100 complete control; for Plant response rating, Barnyardgrass: flooded paddy test, scale 0 to 100 (0 no effect, 100 complete control)", "outline": "as §1"}, "[3]": {"test_system": "duck salad (Heteranthera limosa)", "assay": "Test C flooded paddy test", "conditions": "for Ducksalad plant response rating: Flooded Paddy, scale 0 to 100, 0 no effect, 100 complete control; for Plant response rating, Ducksalad: flooded paddy test, scale 0 to 100 (0 no effect, 100 complete control)", "outline": "as §1"}, "[4]": {"test_system": "yellow nutsedge (Cyperus esculentus)", "assay": "Test C preemergence", "source_text": "(§2) Seeds of plant species selected from bermudagrass (Cynodon dactylon), Surinam grass (Brachiaria decumbens), cocklebur (Xanthium strumarium), corn (Zea mays), crabgrass (Digitaria sanguinalis), woolly cupgrass (Eriochloa villosa), giant foxtail (Setaria faberii), goosegrass (Eleusine indica), johnsongrass (Sorghum halepense), kochia (Kochia scoparia), lambsquarters (Chenopodium album), morningglory (Ipomoea hederacea), yellow nutsedge (Cyperus esculentus), pigweed (Amaranthus retroflexus), common ragweed (Ambrosia elatior), soybean (Glycine max) and velvetleaf (Abutilon theophrasti) were planted and treated preemergence with test chemicals formulated in a non-phytotoxic solvent mixture which included a surfactant.\n(§3) At the same time, plants selected from these crop and weed species and also winter barley (Hordeum vulgare), blackgrass (Alopecurus myosuroides), canary grass (Phalaris minor), chickweed (Stellaria media), downy brome (Bromus tectorum), green foxtail (Setaria viridis), Italian ryegrass (Lolium multiflorum), wheat (Triticum aestivum), wild oat (Avena fatua) and windgrass (Apera spica-venti) were treated with postemergence applications of some of the test chemicals formulated in the same manner. Plants ranged in height from 2 to 18 cm (1- to 4-leaf stage) for postemergence treatments. Plant species in the flooded paddy test consisted of rice (Oryza saliva), smallflower flatsedge (Cyperus difformis), duck salad (Heteranthera limosa) and barnyardgrass (Echinochloa crus-galli) grown to the 2-leaf stage for testing. Treated plants and controls were maintained in a greenhouse for 12 to 14 days, after which time all species were compared to controls and visually evaluated. Plant response ratings, summarized in Table C, are based on a scale of 0 to 100 where 0 is no effect and 100 is complete control. A dash (-) response means no test result."}, "corn (Zea mays)": {"test_system": "corn (Zea mays)", "assay": "Test C preemergence", "source_text": "as §2, §3"}, "[5]": {"test_system": "morningglory (Ipomoea hederacea)", "assay": "Test C preemergence", "source_text": "as §2, §3"}, "[6]": {"test_system": "pigweed (Amaranthus retroflexus)", "assay": "Test C preemergence", "source_text": "as §2, §3"}, "[7]": {"test_system": "goosegrass (Eleusine indica)", "assay": "Test C preemergence", "source_text": "as §2, §3"}, "[8]": {"test_system": "giant foxtail (Setaria faberii)", "assay": "Test C preemergence", "source_text": "as §2, §3"}, "[9]": {"test_system": "crabgrass (Digitaria sanguinalis)", "assay": "Test C preemergence", "source_text": "as §2, §3"}, "[10]": {"test_system": "Surinam grass (Brachiaria decumbens)", "assay": "Test C preemergence", "source_text": "as §2, §3"}, "[11]": {"test_system": "velvetleaf (Abutilon theophrasti)", "assay": "Test C preemergence", "source_text": "as §2, §3"}, "Nightshade": {"test_system": "Nightshade", "assay": "Test C preemergence", "source_text": "as §2, §3"}, "[12]": {"test_system": "cocklebur (Xanthium strumarium)", "assay": "Test C preemergence", "source_text": "as §2, §3"}, "[13]": {"test_system": "common ragweed (Ambrosia elatior)", "assay": "Test C preemergence", "source_text": "as §2, §3"}, "[14]": {"test_system": "johnsongrass (Sorghum halepense)", "assay": "Test C preemergence", "source_text": "as §2, §3"}, "soybean (Glycine max)": {"test_system": "soybean (Glycine max)", "assay": "Test C preemergence", "source_text": "as §2, §3"}, "Sunflower": {"test_system": "Sunflower", "assay": "Test C preemergence", "conditions": "Rate 125 g/ha; scale 0 to 100, 0 no effect, 100 complete control", "source_text": "as §2, §3"}, "[15]": {"test_system": "bermudagrass (Cynodon dactylon)", "assay": "Test C preemergence", "source_text": "as §2, §3"}, "kochia (Kochia scoparia)": {"test_system": "kochia (Kochia scoparia)", "assay": "Test C preemergence", "source_text": "as §2, §3"}, "[16]": {"test_system": "woolly cupgrass (Eriochloa villosa)", "assay": "Test C preemergence", "source_text": "as §2, §3"}, "[17]": {"conditions": "Rate 62 g/ha, scale 0 to 100, 0 no effect, 100 complete control"}, "[18]": {"conditions": "Rate 125 g/ha, scale 0 to 100, 0 no effect, 100 complete control"}, "[19]": {"conditions": "preemergence, Rate 31 g/ha, scale 0 to 100"}, "[20]": {"conditions": "preemergence, Rate 250 g/ha, scale 0 to 100, 0 no effect, 100 complete control"}, "[21]": {"conditions": "preemergence, Rate 250 g/ha, visual evaluation after 12 to 14 days"}}}
{"smiles": "COC(=O)c1cccc(N2CCC(n3ccc(C(C)(C)C)n3)C2=O)c1", "note": "(stereo not shown) [Compound 73]", "values": [{"measurement": "Flatsedge plant response rating", "setting": "[1]; Rate 250 g/ha", "result": 100}, {"measurement": "Flatsedge plant response rating", "setting": "[1]; Rate 500 g/ha", "result": 100}, {"measurement": "Plant response rating, Flatsedge", "setting": "[1]; Rate 62 g/ha", "result": 90}, {"measurement": "Plant response rating, Flatsedge", "setting": "[1]; Rate 125 g/ha", "result": 100}, {"measurement": "Barnyardgrass plant response rating", "setting": "[2]; Rate 250 g/ha", "result": 100}, {"measurement": "Barnyardgrass plant response rating", "setting": "[2]; Rate 500 g/ha", "result": 100}, {"measurement": "Plant response rating, Barnyardgrass", "setting": "[2]; Rate 62 g/ha", "result": 30}, {"measurement": "Plant response rating, Barnyardgrass", "setting": "[2]; Rate 125 g/ha", "result": 70}, {"measurement": "Ducksalad plant response rating", "setting": "[3]; Rate 250 g/ha", "result": 100}, {"measurement": "Ducksalad plant response rating", "setting": "[3]; Rate 500 g/ha", "result": 100}, {"measurement": "Plant response rating, Ducksalad", "setting": "[3]; Rate 62 g/ha", "result": 70}, {"measurement": "Plant response rating, Ducksalad", "setting": "[3]; Rate 125 g/ha", "result": 90}, {"measurement": "Plant response rating, Nutsedge", "setting": "[4]; [17]", "result": 0}, {"measurement": "Plant response rating, Nutsedge", "setting": "[4]; [18]", "result": 30}, {"measurement": "Plant response rating, Nutsedge", "setting": "[4]; [19]", "result": 0}, {"measurement": "Plant response rating, Nutsedge", "setting": "[4]; [20]", "result": 50}, {"measurement": "Plant response rating, Corn", "setting": "corn (Zea mays); [17]", "result": 0}, {"measurement": "Plant response rating, Corn", "setting": "corn (Zea mays); [18]", "result": 0}, {"measurement": "Plant response rating, Corn", "setting": "corn (Zea mays); [19]", "result": 0}, {"measurement": "Plant response rating (0 to 100), Corn", "setting": "corn (Zea mays); [21]", "result": 0}, {"measurement": "Plant response rating, Morningglory", "setting": "[5]; [17]", "result": 30}, {"measurement": "Plant response rating, Morningglory", "setting": "[5]; [18]", "result": 30}, {"measurement": "Plant response rating, Morningglory", "setting": "[5]; [19]", "result": 30}, {"measurement": "Plant response rating, Morningglory", "setting": "[5]; [20]", "result": 100}, {"measurement": "Plant response rating, Pigweed", "setting": "[6]; [18]", "result": 0}, {"measurement": "Plant response rating, Pigweed", "setting": "[6]; [19]", "result": 0}, {"measurement": "Plant response rating, Pigweed", "setting": "[6]; [20]", "result": 40}, {"measurement": "Plant response rating, Goosegrass", "setting": "[7]; [17]", "result": 80}, {"measurement": "Plant response rating, Goosegrass", "setting": "[7]; [18]", "result": 100}, {"measurement": "Plant response rating, Goosegrass", "setting": "[7]; [19]", "result": 60}, {"measurement": "Plant response rating (0 to 100), Goosegrass", "setting": "[7]; [21]", "result": 100}, {"measurement": "Plant response rating, Foxtail, Giant", "setting": "[8]; [17]", "result": 80}, {"measurement": "Plant response rating, Foxtail, Giant", "setting": "[8]; [18]", "result": 100}, {"measurement": "Plant response rating, Foxtail, Giant", "setting": "[8]; [19]", "result": 20}, {"measurement": "Plant response rating (0 to 100), Foxtail, Giant", "setting": "[8]; [21]", "result": 100}, {"measurement": "Plant response rating, Crabgrass", "setting": "[9]; [17]", "result": 90}, {"measurement": "Plant response rating, Crabgrass", "setting": "[9]; [18]", "result": 100}, {"measurement": "Plant response rating, Crabgrass", "setting": "[9]; [19]", "result": 90}, {"measurement": "Plant response rating (0 to 100), Crabgrass", "setting": "[9]; [21]", "result": 100}, {"measurement": "Plant response rating, Surinam grass", "setting": "[10]; [17]", "result": 50}, {"measurement": "Plant response rating, Surinam grass", "setting": "[10]; [18]", "result": 70}, {"measurement": "Plant response rating, Surinam grass", "setting": "[10]; [19]", "result": 20}, {"measurement": "Plant response rating (0 to 100), Surinam grass", "setting": "[10]; [21]", "result": 70}, {"measurement": "Plant response rating, Velvetleaf", "setting": "[11]; [18]", "result": 50}, {"measurement": "Plant response rating, Velvetleaf", "setting": "[11]; [19]", "result": 20}, {"measurement": "Plant response rating, Velvetleaf", "setting": "[11]; [20]", "result": 60}, {"measurement": "Plant response rating, Nightshade", "setting": "Nightshade; Rate 31 g/ha, scale 0 to 100", "result": 50}, {"measurement": "Plant response rating, Nightshade", "setting": "Nightshade; [17]", "result": 60}, {"measurement": "Plant response rating, Nightshade", "setting": "Nightshade; [18]", "result": 80}, {"measurement": "Plant response rating, Nightshade", "setting": "Nightshade; Rate 250 g/ha, scale 0 to 100, 0 no effect, 100 complete control", "result": 100}, {"measurement": "Plant response rating, Cocklebur", "setting": "[12]; [17]", "result": 70}, {"measurement": "Plant response rating, Cocklebur", "setting": "[12]; [19]", "result": 20}, {"measurement": "Plant response rating (0 to 100), Cocklebur", "setting": "[12]; [21]", "result": 80}, {"measurement": "Plant response rating, Ragweed, Common", "setting": "[13]; [18]", "result": 80}, {"measurement": "Plant response rating, Ragweed, Common", "setting": "[13]; [19]", "result": 30}, {"measurement": "Plant response rating, Ragweed, Common", "setting": "[13]; [20]", "result": 100}, {"measurement": "Plant response rating, Johnsongrass", "setting": "[14]; [17]", "result": 20}, {"measurement": "Plant response rating, Johnsongrass", "setting": "[14]; [18]", "result": 30}, {"measurement": "Plant response rating, Johnsongrass", "setting": "[14]; [19]", "result": 0}, {"measurement": "Plant response rating (0 to 100), Johnsongrass", "setting": "[14]; [21]", "result": 50}, {"measurement": "Plant response rating, Soybean", "setting": "soybean (Glycine max); [18]", "result": 40}, {"measurement": "Plant response rating, Soybean", "setting": "soybean (Glycine max); [19]", "result": 0}, {"measurement": "Plant response rating, Soybean", "setting": "soybean (Glycine max); [20]", "result": 70}, {"measurement": "Plant response rating, Sunflower", "setting": "Sunflower", "result": 50}, {"measurement": "Plant response rating, Bermudagrass", "setting": "[15]; [17]", "result": 70}, {"measurement": "Plant response rating, Bermudagrass", "setting": "[15]; [18]", "result": 100}, {"measurement": "Plant response rating, Bermudagrass", "setting": "[15]; [19]", "result": 60}, {"measurement": "Plant response rating (0 to 100 where 0 is no effect and 100 is complete control), Bermudagrass", "setting": "[15]; [21]", "result": 100}, {"measurement": "Plant response rating, Kochia", "setting": "kochia (Kochia scoparia); [17]", "result": 80}, {"measurement": "Plant response rating, Kochia", "setting": "kochia (Kochia scoparia); [18]", "result": 100}, {"measurement": "Plant response rating, Kochia", "setting": "kochia (Kochia scoparia); [19]", "result": 20}, {"measurement": "Plant response rating (0 to 100), Kochia", "setting": "kochia (Kochia scoparia); [21]", "result": 100}, {"measurement": "Plant response rating, Cupgrass, Woolly", "setting": "[16]; [17]", "result": 60}, {"measurement": "Plant response rating, Cupgrass, Woolly", "setting": "[16]; [18]", "result": 80}, {"measurement": "Plant response rating, Cupgrass, Woolly", "setting": "[16]; [19]", "result": 20}, {"measurement": "Plant response rating (0 to 100), Cupgrass, Woolly", "setting": "[16]; [21]", "result": 100}]}
